According to ChEMBL document CHEMBL1201862, “PubChem BioAssay data set” (2004):
The source made the active and inactive calls.

Experiments:
[1] = miR-122 activators in hepatoma reporter cells, dose response, cell-based, Huh7 psiCHECK-miR122, Renilla luciferase, cherry-picked (AID 651956); assay type: functional;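 note: huh7 hepatoma cells stably carrying a psiCHECK-2 miR-122 sensor plasmid; renilla luciferase signal reporting endogenous miR-122 activity after 48 h compound exposure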
[2] = target: T1, Apoptotic protease-activating factor 1 (Homo sapiens, UniProt O14727); experiment: SAR analysis of small molecule Activators of Apaf-1 in a Fluorescent assay.; assay type: functional; conditions: read-out: EC50_Mean;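 note: caspase-3 cleavage of fluorogenic Rh110 DEVD substrate downstream of apoptosome activation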
T1 sequence (O14727 whole entry): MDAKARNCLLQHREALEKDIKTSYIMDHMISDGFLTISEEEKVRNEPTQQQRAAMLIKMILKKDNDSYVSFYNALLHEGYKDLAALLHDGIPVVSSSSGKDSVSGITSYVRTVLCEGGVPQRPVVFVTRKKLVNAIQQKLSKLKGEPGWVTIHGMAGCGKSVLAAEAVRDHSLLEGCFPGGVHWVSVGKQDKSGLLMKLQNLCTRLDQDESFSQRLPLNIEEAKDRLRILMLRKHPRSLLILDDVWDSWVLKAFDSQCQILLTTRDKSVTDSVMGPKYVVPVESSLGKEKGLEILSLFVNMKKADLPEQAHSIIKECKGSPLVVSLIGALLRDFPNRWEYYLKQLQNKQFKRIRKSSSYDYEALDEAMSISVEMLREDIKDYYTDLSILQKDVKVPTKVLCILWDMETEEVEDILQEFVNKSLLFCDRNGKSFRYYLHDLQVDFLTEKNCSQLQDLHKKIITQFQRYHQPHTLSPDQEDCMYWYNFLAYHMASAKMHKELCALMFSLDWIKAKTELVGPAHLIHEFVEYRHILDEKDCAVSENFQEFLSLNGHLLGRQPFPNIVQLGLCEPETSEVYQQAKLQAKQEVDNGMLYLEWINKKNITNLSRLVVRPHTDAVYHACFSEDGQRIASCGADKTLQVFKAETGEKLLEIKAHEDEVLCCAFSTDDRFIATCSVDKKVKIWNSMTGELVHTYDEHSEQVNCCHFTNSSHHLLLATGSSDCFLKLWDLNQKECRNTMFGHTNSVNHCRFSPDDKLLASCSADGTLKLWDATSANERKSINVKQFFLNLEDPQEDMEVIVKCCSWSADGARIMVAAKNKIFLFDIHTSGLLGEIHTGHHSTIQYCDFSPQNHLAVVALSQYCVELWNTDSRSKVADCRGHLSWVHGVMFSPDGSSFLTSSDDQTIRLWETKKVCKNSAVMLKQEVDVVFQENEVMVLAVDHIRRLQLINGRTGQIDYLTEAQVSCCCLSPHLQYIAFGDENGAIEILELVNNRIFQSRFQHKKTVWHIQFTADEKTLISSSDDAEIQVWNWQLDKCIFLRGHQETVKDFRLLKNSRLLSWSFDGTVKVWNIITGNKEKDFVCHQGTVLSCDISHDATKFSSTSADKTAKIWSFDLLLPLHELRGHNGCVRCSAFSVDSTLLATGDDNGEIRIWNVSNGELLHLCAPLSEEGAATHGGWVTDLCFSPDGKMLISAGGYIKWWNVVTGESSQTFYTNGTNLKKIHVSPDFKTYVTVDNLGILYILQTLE

[3] = AlphaScreen signal interference compounds, dose response, artefact control for ARNT-TACC3 interaction inhibitor project, biochemical, luminescence, cherry-pick (AID 651705); assay type: functional;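 note: AlphaScreen bead proximity signal that flags compounds interfering with the detection technology; potency reflects signal decrease which marks the compound as an assay artifact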
[4] = DNA binding of candidate compounds, dose response, artefact control for RAD54 inhibitor project, biochemical, fluorescence polarization, cherry-pick (AID 651673); assay type: functional
[5] = target: DNA repair and recombination protein RAD54-like (Homo sapiens, UniProt Q92698); experiment: inhibitors of human RAD54 branch migration, confirmation, biochemical, fluorescence, cherry-picked samples, dose series (AID 651657); assay type: functional
[6] = target: T2, DNA repair protein RAD52 homolog (Homo sapiens, UniProt P43351); assay type: functional, biochemical
T2 sequence (P43351 whole entry): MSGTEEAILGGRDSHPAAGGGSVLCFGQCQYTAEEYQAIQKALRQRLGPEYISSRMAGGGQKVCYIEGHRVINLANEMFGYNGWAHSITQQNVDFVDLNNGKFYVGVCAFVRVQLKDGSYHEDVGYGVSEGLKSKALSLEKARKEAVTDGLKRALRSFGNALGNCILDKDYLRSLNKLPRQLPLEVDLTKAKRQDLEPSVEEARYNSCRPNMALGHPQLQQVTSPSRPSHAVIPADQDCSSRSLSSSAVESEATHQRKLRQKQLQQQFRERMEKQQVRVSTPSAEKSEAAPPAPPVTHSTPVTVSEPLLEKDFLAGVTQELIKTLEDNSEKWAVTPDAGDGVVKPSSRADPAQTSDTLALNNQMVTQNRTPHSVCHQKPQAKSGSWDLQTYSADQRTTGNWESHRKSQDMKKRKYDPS

[7] = microbe, parasite or virus in culture; assay type: functional; conditions: Mycobacterium tuberculosis
[8] = target: T3, Scavenger receptor class B member 1 (Mus musculus, UniProt Q61009); experiment: inhibitors of SR-BI dependent HDL uptake, dose response, ldlA[mSR-BI] CHO cells, fluorescence plate reader, dry powder, set 9 (AID 623880); assay type: functional, cell-based
T3 sequence (Q61009 whole entry): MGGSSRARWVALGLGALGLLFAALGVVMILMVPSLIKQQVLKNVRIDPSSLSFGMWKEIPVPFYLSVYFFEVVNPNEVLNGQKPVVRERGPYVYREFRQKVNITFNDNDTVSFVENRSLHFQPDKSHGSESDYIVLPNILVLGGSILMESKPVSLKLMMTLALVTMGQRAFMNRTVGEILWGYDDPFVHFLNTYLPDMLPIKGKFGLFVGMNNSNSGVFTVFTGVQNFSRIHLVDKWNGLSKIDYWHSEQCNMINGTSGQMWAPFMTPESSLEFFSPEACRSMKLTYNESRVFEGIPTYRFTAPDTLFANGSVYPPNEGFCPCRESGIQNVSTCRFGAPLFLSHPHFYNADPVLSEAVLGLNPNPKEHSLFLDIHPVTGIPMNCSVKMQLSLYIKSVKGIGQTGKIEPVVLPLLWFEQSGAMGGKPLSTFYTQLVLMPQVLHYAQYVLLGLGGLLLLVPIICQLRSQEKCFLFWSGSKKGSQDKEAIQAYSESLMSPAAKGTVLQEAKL

[9] = target: T3, Scavenger receptor class B member 1; experiment: inhibitors of SR-BI-mediated HDL uptake, dose response, cell-based, ldlA[mSR-BI] CHO, DiI fluorescence, dry powder, set 10 (AID 624029); assay type: functional
[10] = target: T4, Protein disulfide-isomerase (Homo sapiens, UniProt P07237); experiment: PDI inhibitors, insulin aggregation turbidity, dose response, biochemical, absorbance, cherry-picked samples (AID 602350); assay type: functional
[11] = target: T4, Protein disulfide-isomerase; experiment: PDI inhibitors, insulin turbidity readout, dose response, biochemical, absorbance, cherry-picked samples, set 2 (AID 624274); assay type: functional
[12] = target: Mu-type opioid receptor (Homo sapiens, UniProt P35372); assay type: functional, cell-based;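 note: U2OS cells with beta-arrestin recruitment to OPRM1 by beta-gal complementation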
[13] = target: 5-hydroxytryptamine receptor 2A (Mus musculus, UniProt P35363); assay type: functional, cell-based;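 note: CHO-K1 cells with tagged receptor and beta-arrestin; agonist potency measured as compound-induced activation of the receptor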
[14] = target: Ephrin type-A receptor 4 (Mus musculus, UniProt Q03137); experiment: inhibitors of EphA4 binding to KYL peptide, primary screen, biochemical, colorimetric, mouse EphA4 (AID 689); assay type: functional
[15] = target: Induced myeloid leukemia cell differentiation protein Mcl-1 (Homo sapiens, UniProt Q07820); assay type: functional
[16] = target: Eukaryotic translation initiation factor 4E (Mus musculus, UniProt P63073); experiment: eIF4E–eIF4G protein interaction inhibitors, dose response, biochemical, TR-FRET (AID 855); assay type: functional;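 note: potency for disrupting eIF4E binding to eIF4GI seen as loss of FRET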
[17] = target: DNA (cytosine-5)-methyltransferase 1 (Homo sapiens, UniProt P26358); experiment: DNMT1 methyltransferase inhibitors, confirmation, biochemical, fluorescent molecular beacon (AID 602386); assay type: functional
[18] = target: T5, Rac GTPase-activating protein 1 (Homo sapiens, UniProt Q9H0H5); experiment: MgcRacGAP GTPase-activating activity inhibitors, confirmation, biochemical, ADP Hunter fluorescence, primary and confirmatory (AID 624330); assay type: functional
T5 sequence (Q9H0H5 whole entry): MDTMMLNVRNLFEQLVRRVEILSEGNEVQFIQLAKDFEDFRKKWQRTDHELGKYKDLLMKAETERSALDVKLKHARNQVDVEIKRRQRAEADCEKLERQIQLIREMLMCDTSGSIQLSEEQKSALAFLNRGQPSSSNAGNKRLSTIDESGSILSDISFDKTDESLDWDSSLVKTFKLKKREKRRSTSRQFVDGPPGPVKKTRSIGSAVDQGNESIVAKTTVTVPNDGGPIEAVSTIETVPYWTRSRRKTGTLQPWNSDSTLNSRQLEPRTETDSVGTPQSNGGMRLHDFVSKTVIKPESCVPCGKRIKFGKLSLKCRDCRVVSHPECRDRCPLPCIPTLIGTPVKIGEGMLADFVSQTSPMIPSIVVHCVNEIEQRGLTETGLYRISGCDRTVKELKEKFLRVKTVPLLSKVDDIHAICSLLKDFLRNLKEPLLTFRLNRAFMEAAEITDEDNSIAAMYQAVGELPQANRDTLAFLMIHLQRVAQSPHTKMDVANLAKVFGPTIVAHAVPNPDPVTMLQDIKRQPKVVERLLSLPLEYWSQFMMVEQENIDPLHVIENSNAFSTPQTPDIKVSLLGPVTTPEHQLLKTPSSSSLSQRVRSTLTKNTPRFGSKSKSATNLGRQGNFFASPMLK

[19] = test system: HEK293; experiment: inhibitors of LMP1-driven NF-kB reporter, dose response, cell-based, HEK293, luciferase, cherry-pick (AID 588343); assay type: functional; conditions: Homo sapiens
[20] = target: T6, Interleukin-8 (Homo sapiens, UniProt P10145); experiment: Dose Response confirmation of uHTS small molecule hits for cystic fibrosis induced NFkb Inhibitors in a TNFa-induced IL8 counterscreen.; assay type: functional; conditions: read-out: IC50_Mean
T6 sequence (P10145 whole entry): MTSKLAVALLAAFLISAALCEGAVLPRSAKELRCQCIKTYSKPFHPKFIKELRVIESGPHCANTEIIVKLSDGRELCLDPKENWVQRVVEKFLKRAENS

[21] = target: T6, Interleukin-8; experiment: Dose Response confirmation of uHTS small molecule hits for cystic fibrosis induced NFkb Inhibitors in a PAF-induced IL8 counterscreen.; assay type: functional; conditions: read-out: IC50_Mean
[22] = inhibitors of PGC1a acetylation in cells, dose response, cell-based, cherry-picked samples (AID 720514); assay type: functional;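 note: potency may reflect raised or lowered acetylation signal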
[23] = target: Matrix metalloproteinase-14 (Homo sapiens, UniProt P50281); experiment: Dose Response confirmation of uHTS hits for a small molecule inhibitors of MT1-MMP activation in a fluorescence assay set 1.; assay type: functional
[24] = target: T7, Calpain-2 catalytic subunit (Sus scrofa, UniProt P43367); experiment: pig calpain II inhibitor potency, dose response, biochemical, fluorogenic peptide substrate (AID 1420); assay type: functional
T7 sequence (P43367 whole entry): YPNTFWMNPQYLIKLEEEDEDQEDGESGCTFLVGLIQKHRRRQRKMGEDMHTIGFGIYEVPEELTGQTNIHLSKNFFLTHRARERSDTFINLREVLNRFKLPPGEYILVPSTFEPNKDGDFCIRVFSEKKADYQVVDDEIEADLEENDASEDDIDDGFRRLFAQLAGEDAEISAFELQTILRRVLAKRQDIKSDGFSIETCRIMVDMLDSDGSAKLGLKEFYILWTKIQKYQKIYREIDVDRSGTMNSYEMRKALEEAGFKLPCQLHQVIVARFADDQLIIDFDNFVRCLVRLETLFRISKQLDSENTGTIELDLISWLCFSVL

[25] = target: Mitochondrial peptide methionine sulfoxide reductase (Bos taurus, UniProt P54149); assay type: functional;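 note: absorbance read-out, biochemical high-throughput dose-response screen for MsrA inhibitors, confirmatory; recombinant bovine MsrA coupled to E. coli TrxB with NADPH and selenocystamine; potency is for inhibitors of MsrA activity on DMSO substrate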
[26] = target: ADP-ribosylation factor GTPase-activating protein 1 (Rattus norvegicus, UniProt Q62848); experiment: Fluorescence polarization-based biochemical high throughput dose response screening assay to identify inhibitors of ADP-ribosylation factor GTPase activating protein 1 (ARFGAP1).; assay type: functional
[27] = target: Arf-GAP with SH3 domain, ANK repeat and PH domain-containing protein 1 (Homo sapiens, UniProt Q9ULH1); assay type: functional;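 note: biochemical fluorescence polarization dose–response screen measuring inhibition of ASAP1; ASAP1 GAP domain stimulating GTP hydrolysis by truncated human ARF1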

T4 sequence (P07237 whole entry): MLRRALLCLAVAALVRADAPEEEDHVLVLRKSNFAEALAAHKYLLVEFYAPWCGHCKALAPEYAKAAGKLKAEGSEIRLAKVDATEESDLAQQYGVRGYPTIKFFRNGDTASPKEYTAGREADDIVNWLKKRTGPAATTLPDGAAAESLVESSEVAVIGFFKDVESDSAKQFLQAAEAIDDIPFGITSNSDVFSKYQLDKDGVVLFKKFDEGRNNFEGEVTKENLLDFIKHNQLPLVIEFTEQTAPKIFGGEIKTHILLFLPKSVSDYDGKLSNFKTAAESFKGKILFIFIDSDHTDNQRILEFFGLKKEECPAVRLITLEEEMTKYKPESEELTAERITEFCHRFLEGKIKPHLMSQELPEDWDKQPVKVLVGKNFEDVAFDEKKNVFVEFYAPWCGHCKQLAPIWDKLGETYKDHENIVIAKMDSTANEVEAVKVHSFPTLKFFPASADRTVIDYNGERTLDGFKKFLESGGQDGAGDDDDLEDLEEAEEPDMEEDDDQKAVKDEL
Chain of ADP-ribosylation factor GTPase-activating protein 1 (Q62848 whole entry, the tested form may be a part): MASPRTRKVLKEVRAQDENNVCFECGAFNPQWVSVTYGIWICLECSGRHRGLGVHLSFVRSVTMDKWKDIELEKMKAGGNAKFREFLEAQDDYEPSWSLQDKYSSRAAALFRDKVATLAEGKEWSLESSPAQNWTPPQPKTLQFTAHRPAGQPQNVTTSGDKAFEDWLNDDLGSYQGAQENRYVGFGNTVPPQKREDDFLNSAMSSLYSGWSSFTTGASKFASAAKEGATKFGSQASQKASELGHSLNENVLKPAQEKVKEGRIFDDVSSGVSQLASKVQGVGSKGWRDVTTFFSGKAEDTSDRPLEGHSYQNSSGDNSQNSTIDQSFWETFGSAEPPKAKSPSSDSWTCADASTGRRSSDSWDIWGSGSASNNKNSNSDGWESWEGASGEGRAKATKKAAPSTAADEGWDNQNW
Chain of Induced myeloid leukemia cell differentiation protein Mcl-1 (Q07820 whole entry): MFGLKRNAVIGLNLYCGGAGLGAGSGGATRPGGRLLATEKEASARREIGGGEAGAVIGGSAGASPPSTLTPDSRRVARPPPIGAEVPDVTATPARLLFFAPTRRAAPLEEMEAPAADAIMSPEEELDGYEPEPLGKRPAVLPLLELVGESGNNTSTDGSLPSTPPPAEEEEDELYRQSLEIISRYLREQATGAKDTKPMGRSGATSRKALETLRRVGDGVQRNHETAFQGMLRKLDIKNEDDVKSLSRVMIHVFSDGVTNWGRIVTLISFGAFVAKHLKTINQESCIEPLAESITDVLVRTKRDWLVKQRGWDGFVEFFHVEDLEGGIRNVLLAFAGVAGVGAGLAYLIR
Chain of Mu-type opioid receptor (P35372 whole entry): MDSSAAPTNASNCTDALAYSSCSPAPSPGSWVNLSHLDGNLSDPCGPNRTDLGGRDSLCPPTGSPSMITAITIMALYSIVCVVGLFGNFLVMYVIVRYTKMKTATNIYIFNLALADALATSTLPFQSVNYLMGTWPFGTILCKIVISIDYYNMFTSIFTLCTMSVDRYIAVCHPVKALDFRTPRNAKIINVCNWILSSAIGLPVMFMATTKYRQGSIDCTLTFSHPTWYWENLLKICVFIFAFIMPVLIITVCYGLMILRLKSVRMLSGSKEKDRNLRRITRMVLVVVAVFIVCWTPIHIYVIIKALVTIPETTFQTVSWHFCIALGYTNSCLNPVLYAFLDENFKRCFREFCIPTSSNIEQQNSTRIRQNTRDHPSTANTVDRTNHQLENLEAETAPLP
Chain of DNA repair and recombination protein RAD54-like (Q92698 whole entry): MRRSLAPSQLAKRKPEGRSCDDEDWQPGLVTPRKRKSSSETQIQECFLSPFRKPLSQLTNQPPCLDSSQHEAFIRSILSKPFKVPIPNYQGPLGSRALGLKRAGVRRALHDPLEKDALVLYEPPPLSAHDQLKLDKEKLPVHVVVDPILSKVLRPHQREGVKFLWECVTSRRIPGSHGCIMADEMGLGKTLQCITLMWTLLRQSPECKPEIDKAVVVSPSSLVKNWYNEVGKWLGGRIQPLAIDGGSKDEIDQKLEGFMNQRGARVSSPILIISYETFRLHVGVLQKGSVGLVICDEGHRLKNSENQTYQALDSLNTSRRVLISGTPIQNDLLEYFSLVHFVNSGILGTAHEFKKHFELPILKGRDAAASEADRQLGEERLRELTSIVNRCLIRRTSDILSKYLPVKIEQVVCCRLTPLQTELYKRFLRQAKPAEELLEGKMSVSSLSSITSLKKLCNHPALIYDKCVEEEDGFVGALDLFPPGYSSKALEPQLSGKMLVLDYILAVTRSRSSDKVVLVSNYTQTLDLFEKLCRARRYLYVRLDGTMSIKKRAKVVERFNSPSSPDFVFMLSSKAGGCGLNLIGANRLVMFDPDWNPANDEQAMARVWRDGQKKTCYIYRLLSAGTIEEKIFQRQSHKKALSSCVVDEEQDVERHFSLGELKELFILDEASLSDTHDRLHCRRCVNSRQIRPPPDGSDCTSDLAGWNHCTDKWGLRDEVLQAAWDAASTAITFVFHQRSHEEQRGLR
Chain of Ephrin type-A receptor 4 (Q03137 whole entry): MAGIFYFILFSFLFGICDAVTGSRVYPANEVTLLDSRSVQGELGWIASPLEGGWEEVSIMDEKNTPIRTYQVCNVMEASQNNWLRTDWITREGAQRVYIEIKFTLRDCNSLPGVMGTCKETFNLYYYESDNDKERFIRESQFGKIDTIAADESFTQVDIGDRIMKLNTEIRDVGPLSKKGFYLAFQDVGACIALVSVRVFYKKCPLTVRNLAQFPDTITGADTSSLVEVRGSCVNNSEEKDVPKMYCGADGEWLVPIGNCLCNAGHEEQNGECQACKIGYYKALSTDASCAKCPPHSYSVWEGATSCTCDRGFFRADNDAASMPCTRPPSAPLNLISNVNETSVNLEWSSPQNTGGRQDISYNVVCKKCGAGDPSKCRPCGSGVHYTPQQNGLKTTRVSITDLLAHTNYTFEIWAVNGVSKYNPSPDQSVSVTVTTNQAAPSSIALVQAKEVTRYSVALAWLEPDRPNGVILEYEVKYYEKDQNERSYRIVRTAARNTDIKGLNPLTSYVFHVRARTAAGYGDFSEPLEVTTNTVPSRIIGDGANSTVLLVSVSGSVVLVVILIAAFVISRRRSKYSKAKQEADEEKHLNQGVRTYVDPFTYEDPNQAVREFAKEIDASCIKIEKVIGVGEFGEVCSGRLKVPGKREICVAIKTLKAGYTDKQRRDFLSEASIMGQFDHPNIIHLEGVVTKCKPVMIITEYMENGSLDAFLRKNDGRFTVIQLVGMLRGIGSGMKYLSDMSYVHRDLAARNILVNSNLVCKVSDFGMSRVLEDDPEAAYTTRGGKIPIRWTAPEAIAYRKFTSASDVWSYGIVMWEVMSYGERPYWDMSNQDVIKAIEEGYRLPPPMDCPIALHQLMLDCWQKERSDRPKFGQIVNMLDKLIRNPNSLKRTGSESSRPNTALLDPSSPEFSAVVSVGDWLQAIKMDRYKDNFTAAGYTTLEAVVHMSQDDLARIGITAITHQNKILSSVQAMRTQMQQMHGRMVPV
Chain of 5-hydroxytryptamine receptor 2A (P35363 whole entry): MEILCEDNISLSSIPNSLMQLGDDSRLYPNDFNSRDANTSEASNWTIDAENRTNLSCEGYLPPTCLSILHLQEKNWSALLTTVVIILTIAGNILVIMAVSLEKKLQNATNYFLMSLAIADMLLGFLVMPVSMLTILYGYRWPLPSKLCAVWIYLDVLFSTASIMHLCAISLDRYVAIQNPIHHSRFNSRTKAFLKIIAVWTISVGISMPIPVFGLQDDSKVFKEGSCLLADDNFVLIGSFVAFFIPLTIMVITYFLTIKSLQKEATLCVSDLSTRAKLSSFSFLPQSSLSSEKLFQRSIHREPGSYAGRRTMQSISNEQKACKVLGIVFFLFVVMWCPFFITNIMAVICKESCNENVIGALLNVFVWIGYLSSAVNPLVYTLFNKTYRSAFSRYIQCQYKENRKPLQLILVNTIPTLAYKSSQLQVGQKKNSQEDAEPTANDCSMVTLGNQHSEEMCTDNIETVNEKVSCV
Chain of Mitochondrial peptide methionine sulfoxide reductase (P54149 whole entry): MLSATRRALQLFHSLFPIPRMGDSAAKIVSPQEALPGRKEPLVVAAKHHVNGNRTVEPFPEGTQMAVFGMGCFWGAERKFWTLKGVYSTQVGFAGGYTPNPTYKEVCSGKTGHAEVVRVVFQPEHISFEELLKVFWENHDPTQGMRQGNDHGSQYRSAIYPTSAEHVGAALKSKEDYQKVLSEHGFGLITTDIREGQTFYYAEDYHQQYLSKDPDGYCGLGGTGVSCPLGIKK
Chain of Eukaryotic translation initiation factor 4E (P63073 whole entry): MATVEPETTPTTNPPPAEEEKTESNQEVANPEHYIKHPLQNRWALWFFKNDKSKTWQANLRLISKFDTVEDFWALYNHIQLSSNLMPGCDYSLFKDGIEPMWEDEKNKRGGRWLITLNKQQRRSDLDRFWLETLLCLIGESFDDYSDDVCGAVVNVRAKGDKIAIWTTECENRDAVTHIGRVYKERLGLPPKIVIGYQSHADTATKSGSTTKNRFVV

With `Cc1cc(C(C)(C)C)cc(S(=O)(=O)NCCc2ccncc2)c1C` the AC50 [1] was 0.598 µM (active).

In the case of `Cc1ccc(N2C(=O)[C@@H]3C(c4ccc(F)cc4)=NO[C@@H]3C2=O)cc1`, the EC50 [2] is reported as > 100 µM (inactive).

For `COCCOC(=O)c1c(N)n(Cc2ccco2)c2nc3ccccc3nc12`, the AC50 [3] was 130 µM (active).

For `CCOC(=O)c1cnc2c(ccc3ccccc32)c1NCCN(C)C`, the AC50 [4] was 55.9 µM (active), the AC50 [5] was 9.73 µM (active) and the AC50 [6] was 6.71 µM (active).

For `CCOc1cc2c3c(c1)C1(C(=O)N3C(C)(C)CC2C)C(C#N)=C(N)N2C(=C1C#N)Nc1ccccc12` (configuration not stated), the CC50 [7] was > 40 µM (active), the AC50 [8] was 10 µM (active) and the AC50 [9] was 2.23 µM (active).

In the case of `O=C(Nc1ccccc1N1CCCC1)c1cc(Cl)ccc1Cl`, the AC50 [10] is reported as < 0.009 µM (active) and the AC50 [11] is reported as 0.009 µM (active).

With `CCC(=O)c1ccc(OCC(O)CN2CCN(c3ccccn3)CC2)cc1` (configuration not stated) the EC50 [12] was 92.5 µM (inactive) and the EC50 [13] was 0.306 µM (active).

With `C=CCOC(=O)c1cc(-c2ccc(/C=C3\C(=O)NC(=O)C(C#N)=C3C)o2)ccc1Cl` the IC50 [14] was 1.45 µM (active), the IC50 [15] was 1.2 µM (active) and the IC50 [16] was 12.8 µM (active). For the same molecule, the IC50 [17] was 5 µM (active) and the IC50 [18] was 229 µM (active).

In the case of `CCCN(CC)c1[nH]cnc2nncc1-2`, the AC50 [19] is reported as 9.96 µM (active), the IC50 [20] is reported as 42.3 µM (inactive) and the IC50 [21] is reported as 9.12 µM (active). For the same molecule, the AC50 [22] was 3.26 µM (active).

In the case of `Cc1ccc(S(=O)(=O)/N=C2\C=C(NS(=O)(=O)c3ccccc3)C(=O)c3ccccc32)c(C)c1`, the IC50 [23] is reported as 14 µM (active).

With `CCOC(=O)C/C(C)=N\Nc1ccc([N+](=O)[O-])cc1[N+](=O)[O-]` the IC50 [24] was 23 µM (not active) and the IC50 [25] was 155 µM (inactive).

With `COc1cc(/C=N\NC(=O)c2ccc(C)nc2)ccc1OC(=O)c1ccc2c(c1)OCO2` the IC50 [26] was 21 µM (inactive) and the IC50 [27] was 24.8 µM (inactive).
